Read-outs that look alike come from different tables or passages of the source.
Assays:
erythrocyte AChE [1] = molecular target: T1, erythrocyte AChE (Homo sapiens, UniProt P22303); settings: human, ref Table S2, cited from earlier work
erythrocyte AChE [2] = molecular target: T1, erythrocyte AChE; assay: Exposure Activity Ratio (EAR) and Dietary Comparator Ratio (DCR) calculation; parameters: from tissue; host or cells: human whole peripheral blood (erythrocytes), K2EDTA anticoagulant; settings: human
Experimental: The DCR value for an exposure scenario was calculated as the ratio of EARtest and EARcomparator (eq 1). The EARtest is scenario-specific and was defined with the IC50 of the tested organophosphate oxon for in vitro erythrocyte AChE inhibition and the PBK model-simulated CBmaxoxon at the defined exposure level (eq 2).
The DCR-based predictions were evaluated by comparing the obtained DCR results with actual knowledge of the adverse health effects reported for the respective exposure scenarios. Adverse effects cannot be ruled out for human exposure scenarios with a DCR result greater than 1, while exposure scenarios with a DCR result less than or equal to 1 are considered to raise no safety concern.[18]−[20] Once validated as an adequate predicting tool, the DCR approach was applied for evaluating the safety of exposure scenarios, for which no information on the resulting toxic outcomes was reported at the defined dose levels for humans.

[3] = QSAR-based prediction; ref Punt et al. 2022; Moerenhout et al. 2024; cited from earlier work

T1 sequence (P22303 32-617 isoform P22303-2 limits assumed): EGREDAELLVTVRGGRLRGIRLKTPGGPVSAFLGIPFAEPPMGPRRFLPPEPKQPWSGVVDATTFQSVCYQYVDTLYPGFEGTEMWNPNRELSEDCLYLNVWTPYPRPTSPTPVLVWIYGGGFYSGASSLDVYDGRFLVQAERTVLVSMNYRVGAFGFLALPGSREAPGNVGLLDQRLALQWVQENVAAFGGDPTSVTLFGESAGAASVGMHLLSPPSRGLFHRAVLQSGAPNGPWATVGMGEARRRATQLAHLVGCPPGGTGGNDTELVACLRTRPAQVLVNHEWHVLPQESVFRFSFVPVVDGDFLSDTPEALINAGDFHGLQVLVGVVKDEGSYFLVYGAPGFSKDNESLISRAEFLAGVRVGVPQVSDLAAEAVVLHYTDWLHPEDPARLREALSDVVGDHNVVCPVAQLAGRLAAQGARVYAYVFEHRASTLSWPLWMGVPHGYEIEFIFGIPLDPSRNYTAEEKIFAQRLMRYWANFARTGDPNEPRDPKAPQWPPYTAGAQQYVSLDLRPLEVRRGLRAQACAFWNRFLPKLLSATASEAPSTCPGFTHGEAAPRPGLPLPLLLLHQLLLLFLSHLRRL

What does the source list for `COP(=S)(OC)Oc1ccc([N+](=O)[O-])c(C)c1` [fenitrothion]?
reported or expected adverse health outcome (erythrocyte AChE [1]; single oral 143 mg/kg BW, listed as Fenitrothion, 143 mg/kg): Yes; reported or expected adverse health outcome (erythrocyte AChE [1]; single oral 214 mg/kg BW, 214 mg/kg): positive; reported or expected adverse health outcome (erythrocyte AChE [1]; single oral 214 mg/kg BW, listed as Fenitrothion, 214 mg/kg): Yes; reported or expected adverse health outcome (erythrocyte AChE [1]; single oral 357 mg/kg BW, 357 mg/kg): positive; reported or expected adverse health outcome (erythrocyte AChE [1]; single oral 357 mg/kg BW, listed as Fenitrothion, 357 mg/kg): Yes; reported or expected adverse health outcome (erythrocyte AChE [1]; single oral 429 mg/kg BW, 429 mg/kg): positive; reported or expected adverse health outcome (erythrocyte AChE [1]; single oral 429 mg/kg BW, listed as Fenitrothion, 429 mg/kg): Yes; reported or expected adverse health outcome (erythrocyte AChE [1]; single oral 500 mg/kg BW, 500 mg/kg): positive; reported or expected adverse health outcome (erythrocyte AChE [1]; single oral 500 mg/kg BW, listed as Fenitrothion, 500 mg/kg): Yes; reported or expected adverse health outcome (erythrocyte AChE [1]; single oral 536 mg/kg BW, 536 mg/kg): positive; reported or expected adverse health outcome (erythrocyte AChE [1]; single oral 536 mg/kg BW, listed as Fenitrothion, 536 mg/kg): Yes; reported or expected adverse health outcome (erythrocyte AChE [1]; single oral 571 mg/kg BW, 571 mg/kg): positive; reported or expected adverse health outcome (erythrocyte AChE [1]; single oral 571 mg/kg BW, listed as Fenitrothion, 571 mg/kg): Yes; reported or expected adverse health outcome (erythrocyte AChE [1]; single oral 1714 mg/kg BW, 1714 mg/kg): positive; reported or expected adverse health outcome (erythrocyte AChE [1]; single oral 1714 mg/kg BW, listed as Fenitrothion, 1714 mg/kg): Yes; reported or expected adverse health outcome (erythrocyte AChE [1]; single oral 1786 mg/kg BW, 1786 mg/kg): positive; reported or expected adverse health outcome (erythrocyte AChE [1]; single oral 1786 mg/kg BW, listed as Fenitrothion, 1786 mg/kg): Yes; calculated DCR value (erythrocyte AChE [2]; single oral 0.042 mg/kg BW): 0.17; calculated EARtest value (erythrocyte AChE [2]; single oral 0.042 mg/kg BW): 6.8 × 10^–3; calculated DCR value (erythrocyte AChE [2]; single oral 0.06 mg/kg BW): 0.25; calculated EARtest value (erythrocyte AChE [2]; single oral 0.06 mg/kg BW): 9.7 × 10^–3; calculated DCR value (erythrocyte AChE [2]; single oral 0.083 mg/kg BW): 0.34; calculated EARtest value (erythrocyte AChE [2]; single oral 0.083 mg/kg BW): 0.013; calculated DCR value (erythrocyte AChE [2]; single oral 0.09 mg/kg BW): 0.37; calculated EARtest value (erythrocyte AChE [2]; single oral 0.09 mg/kg BW): 0.015; calculated DCR value (erythrocyte AChE [2]; single oral 0.17 mg/kg BW): 0.70; calculated EARtest value (erythrocyte AChE [2]; single oral 0.17 mg/kg BW): 0.028; calculated DCR value (erythrocyte AChE [2]; single oral 0.18 mg/kg BW): 0.74; calculated EARtest value (erythrocyte AChE [2]; single oral 0.18 mg/kg BW): 0.029; calculated DCR value (erythrocyte AChE [2]; single oral 0.25 mg/kg BW): 1.0; calculated EARtest value (erythrocyte AChE [2]; single oral 0.25 mg/kg BW): 0.041; calculated DCR value (erythrocyte AChE [2]; single oral 0.33 mg/kg BW): 1.4; calculated EARtest value (erythrocyte AChE [2]; single oral 0.33 mg/kg BW): 0.054; calculated DCR value (erythrocyte AChE [2]; single oral 0.36 mg/kg BW): 1.5; calculated EARtest value (erythrocyte AChE [2]; single oral 0.36 mg/kg BW): 0.059; calculated DCR value (erythrocyte AChE [2]; single oral 36 mg/kg BW): 174; calculated EARtest value (erythrocyte AChE [2]; single oral 36 mg/kg BW): 6.89; calculated DCR value (erythrocyte AChE [2]; single oral 71 mg/kg BW): 346; calculated EARtest value (erythrocyte AChE [2]; single oral 71 mg/kg BW): 13.66; calculated DCR value (erythrocyte AChE [2]; single oral 143 mg/kg BW): 610; calculated EARtest value (erythrocyte AChE [2]; single oral 143 mg/kg BW): 24.10; calculated DCR value (erythrocyte AChE [2]; single oral 214 mg/kg BW): 811; calculated EARtest value (erythrocyte AChE [2]; single oral 214 mg/kg BW): 32.03; calculated DCR value (erythrocyte AChE [2]; single oral 357 mg/kg BW): 1189; calculated EARtest value (erythrocyte AChE [2]; single oral 357 mg/kg BW): 46.93; calculated DCR value (erythrocyte AChE [2]; single oral 429 mg/kg BW): 1364; calculated EARtest value (erythrocyte AChE [2]; single oral 429 mg/kg BW): 53.86; calculated DCR value (erythrocyte AChE [2]; single oral 500 mg/kg BW): 1526; calculated EARtest value (erythrocyte AChE [2]; single oral 500 mg/kg BW): 60.24; calculated DCR value (erythrocyte AChE [2]; single oral 536 mg/kg BW): 1604; calculated EARtest value (erythrocyte AChE [2]; single oral 536 mg/kg BW): 63.31; calculated DCR value (erythrocyte AChE [2]; single oral 571 mg/kg BW): 1677; calculated EARtest value (erythrocyte AChE [2]; single oral 571 mg/kg BW): 66.18; calculated DCR value (erythrocyte AChE [2]; single oral 1714 mg/kg BW): 3037; calculated EARtest value (erythrocyte AChE [2]; single oral 1714 mg/kg BW): 119.90; calculated DCR value (erythrocyte AChE [2]; single oral 1786 mg/kg BW): 3078; calculated EARtest value (erythrocyte AChE [2]; single oral 1786 mg/kg BW): 121.49; Oral absorption rate constant [3]: 0.58 h⁻¹
